The source made the active and inactive calls.
Columns and labels:
[1] = viability of uninfected HEp-2 cells – cell-based, HTS, cytotoxicity control for RSV inhibitor project, dose response (AID 2410); type: functional; details: human respiratory syncytial virus
CHO-K1 = test: (§1) Counterscreen for antagonists of the orexin 1 receptor (OX1R; HCRTR1): Homogeneous time resolved fluorescence (HTRF)-based cell-based dose response assay to identify antagonists of the parental CHO-K1 cell line. [Related pubchem assays (depositor defined):AID434989, AID435008, AID463079, AID485270, AID492963, AID492964, AID492965, AID493232, AID504699, AID504701]; type: functional; details: Cricetulus griseus
[2] = as §1, with “Fluorescence-based” for “Homogeneous time resolved fluorescence (HTRF)-based”, “cell-based high throughput” for “cell-based”, “CHO” for “CHO-K1”; type: functional
[3] = molecular target: T1, Orexin/Hypocretin receptor type 1 (Homo sapiens, UniProt O43613); test: Homogeneous Time Resolved Fluorescence (HTRF)-based cell-based high throughput dose response assay for antagonists of the orexin 1 receptor (OX1R; HCRTR1). [Related pubchem assays (depositor defined):AID434989, AID435008, AID463079, AID485270, AID492963, AID492964, AID492965, AID493232, AID504717, AID504718]; type: functional
[4] = molecular target: T1, Orexin/Hypocretin receptor type 1; test: Fluorescence-based cell-based high throughput dose response assay for antagonists of the orexin 1 receptor (OX1R; HCRTR1). [Related pubchem assays (depositor defined):AID434989, AID435008, AID463079, AID485270, AID492963, AID492964, AID492965, AID493232, AID504717, AID504718]; type: functional
CAAX prenyl protease 2 = molecular target: T2, CAAX prenyl protease 2 (Saccharomyces cerevisiae S288c, UniProt Q03530); type: biochemical
T2 sequence (Q03530 whole entry): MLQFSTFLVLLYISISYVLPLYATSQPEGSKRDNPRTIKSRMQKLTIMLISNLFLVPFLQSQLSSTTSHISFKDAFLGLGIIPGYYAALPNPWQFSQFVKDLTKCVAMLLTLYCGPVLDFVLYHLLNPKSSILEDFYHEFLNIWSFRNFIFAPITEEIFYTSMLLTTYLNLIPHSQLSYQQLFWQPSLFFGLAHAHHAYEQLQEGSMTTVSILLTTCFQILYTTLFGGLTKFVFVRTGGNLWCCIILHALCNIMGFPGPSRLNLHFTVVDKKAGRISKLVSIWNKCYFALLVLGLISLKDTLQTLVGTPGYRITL

[5] = toxicity toward cultured mammalian cells – cell-based, plate reader, cherry-pick samples, cytotoxicity control, dose response (AID 504397); type: functional
[6] = molecular target: T3, RNA-binding protein pos-1 (Caenorhabditis elegans, UniProt G5EF15); test: disruptors of C. elegans POS-1 RNA interaction – biochemical, fluorescence polarization, dose response (AID 1964);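 further: purified POS-1 fused to maltose binding protein made in E. coli; potency of compounds blocking POS-1 binding to fluorescent RNA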
T3 sequence (G5EF15 whole entry): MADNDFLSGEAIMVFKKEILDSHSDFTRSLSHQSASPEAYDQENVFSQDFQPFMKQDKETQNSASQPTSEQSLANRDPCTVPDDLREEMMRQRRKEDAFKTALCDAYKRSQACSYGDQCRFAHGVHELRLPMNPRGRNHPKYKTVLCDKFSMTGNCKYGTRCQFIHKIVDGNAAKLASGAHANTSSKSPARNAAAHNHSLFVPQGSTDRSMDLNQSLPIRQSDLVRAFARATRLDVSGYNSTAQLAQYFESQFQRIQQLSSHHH

SUMO-activating enzyme [7] = molecular target: T4, SUMO-activating enzyme (Homo sapiens, UniProt Q9UBT2); test: blockers of UBC9-mediated SUMO conjugation – biochemical, AlphaScreen, SUMOylation inhibitor project, confirmation (AID 2018); type: functional
[8] = molecular target: T5, Zinc finger protein mex-5 (Caenorhabditis elegans, UniProt Q9XUB2); test: potency of MEX-5 RNA-binding blockers – biochemical, C. elegans, fluorescence polarization, dose response (AID 1960)
T5 sequence (Q9XUB2 whole entry): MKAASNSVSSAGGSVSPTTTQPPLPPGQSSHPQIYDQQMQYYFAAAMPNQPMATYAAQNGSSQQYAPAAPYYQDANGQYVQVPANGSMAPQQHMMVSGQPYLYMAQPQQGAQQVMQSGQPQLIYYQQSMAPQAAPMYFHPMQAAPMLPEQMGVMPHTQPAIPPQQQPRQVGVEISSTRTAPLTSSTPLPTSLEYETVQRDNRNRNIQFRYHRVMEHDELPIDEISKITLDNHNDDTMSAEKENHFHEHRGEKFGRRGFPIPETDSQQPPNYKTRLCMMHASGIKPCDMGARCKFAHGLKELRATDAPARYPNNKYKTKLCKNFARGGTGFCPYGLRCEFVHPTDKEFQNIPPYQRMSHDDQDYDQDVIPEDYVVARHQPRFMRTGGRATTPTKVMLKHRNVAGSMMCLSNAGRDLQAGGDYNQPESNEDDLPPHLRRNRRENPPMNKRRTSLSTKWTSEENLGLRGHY

SUMO-activating enzyme [9] = molecular target: T4, SUMO-activating enzyme; test: blockers of SAE1/SAE2–UBC9 SUMO transfer – biochemical, HTRF, uHTS, primary screen (AID 2006); type: protein-complex assay
[10] = molecular target: T6, Tyrosine-protein phosphatase non-receptor type 7 (Homo sapiens, UniProt P35236); test: inhibition of hematopoietic tyrosine phosphatase HePTP – biochemical, set 2, SAR follow-up (AID 449736); type: functional
T6 sequence (P35236 whole entry): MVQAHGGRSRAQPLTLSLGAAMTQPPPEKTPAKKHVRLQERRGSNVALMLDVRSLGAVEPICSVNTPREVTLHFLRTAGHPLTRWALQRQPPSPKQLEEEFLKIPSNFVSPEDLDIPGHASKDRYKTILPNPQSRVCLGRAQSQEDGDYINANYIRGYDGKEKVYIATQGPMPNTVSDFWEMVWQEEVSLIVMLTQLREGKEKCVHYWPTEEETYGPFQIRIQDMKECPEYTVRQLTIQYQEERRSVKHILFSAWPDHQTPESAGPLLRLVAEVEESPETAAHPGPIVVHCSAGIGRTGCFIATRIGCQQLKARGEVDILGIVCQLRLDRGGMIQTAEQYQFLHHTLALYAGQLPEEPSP

[11] = molecular target: T7, G-protein coupled receptor 35 (Homo sapiens, UniProt Q9HC97); test: SAR analysis of Agonists of the GPR35 Receptor using an Image-Based Assay - Set 4. [Related pubchem assays (depositor defined):AID2013, AID2026]; type: functional
Cannabinoid receptor 1 [12] = molecular target: T8, Cannabinoid receptor 1 (Homo sapiens, UniProt P21554); test: SAR analysis of agonists of the Cannabinoid Receptor 1 using an Image-Based Assay - Set 4. [Related pubchem assays (depositor defined):AID2013, AID2026]; type: functional
[13] = molecular target: T7, G-protein coupled receptor 35; test: SAR analysis of Antagonists of the GPR35 Receptor using an Image-Based Assay - Set 6. [Related pubchem assays (depositor defined):AID2013, AID2026]; type: functional
Cannabinoid receptor 1 [14] = molecular target: T8, Cannabinoid receptor 1; test: SAR analysis of antagonists of the Cannabinoid Receptor 1 using an Image-Based Assay - Set 4. [Related pubchem assays (depositor defined):AID2013, AID2026]; type: functional
[15] = molecular target: G-protein coupled receptor 55 (Homo sapiens, UniProt Q9Y2T6); test: SAR Analysis of Selective Antagonists of GPR55 using an Image-Based Assay - Set 4. [Related pubchem assays (depositor defined):AID2013, AID2026]; type: functional;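 further: antagonism of response to 5 µM lysophosphatidylinositol agonist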
Cannabinoid receptor 2 [16] = molecular target: T9, Cannabinoid receptor 2 (Homo sapiens, UniProt P34972); test: SAR analysis of antagonists of the Cannabinoid Receptor 2 using an Image-Based Assay - Set 3. [Related pubchem assays (depositor defined):AID2013, AID2026]; type: functional
Cannabinoid receptor 2 [17] = molecular target: T9, Cannabinoid receptor 2; test: SAR analysis of agonists of the Cannabinoid Receptor 2 using an Image-Based Assay - Set 3. [Related pubchem assays (depositor defined):AID2013, AID2026]; type: functional

T7 sequence (Q9HC97 whole entry): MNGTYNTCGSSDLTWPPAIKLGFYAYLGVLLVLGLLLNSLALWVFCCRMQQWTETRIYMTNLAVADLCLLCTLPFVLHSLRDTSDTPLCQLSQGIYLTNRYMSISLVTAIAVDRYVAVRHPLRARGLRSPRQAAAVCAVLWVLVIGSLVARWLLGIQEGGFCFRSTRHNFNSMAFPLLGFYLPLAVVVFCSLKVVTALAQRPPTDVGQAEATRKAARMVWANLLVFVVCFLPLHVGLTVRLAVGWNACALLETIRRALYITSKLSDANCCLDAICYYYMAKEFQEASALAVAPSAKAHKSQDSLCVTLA
T4 sequence (Q9UBE0 whole entry): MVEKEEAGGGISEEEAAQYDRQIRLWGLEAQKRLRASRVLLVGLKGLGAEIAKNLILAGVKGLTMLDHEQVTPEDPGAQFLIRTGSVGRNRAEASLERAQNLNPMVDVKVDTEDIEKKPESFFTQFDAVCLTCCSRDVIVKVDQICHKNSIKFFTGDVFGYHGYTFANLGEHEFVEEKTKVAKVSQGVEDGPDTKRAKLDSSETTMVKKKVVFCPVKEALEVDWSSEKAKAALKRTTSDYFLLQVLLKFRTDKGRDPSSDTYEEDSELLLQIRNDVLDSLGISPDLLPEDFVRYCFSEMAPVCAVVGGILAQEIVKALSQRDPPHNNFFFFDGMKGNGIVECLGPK
T4 sequence (Q9UBT2 whole entry): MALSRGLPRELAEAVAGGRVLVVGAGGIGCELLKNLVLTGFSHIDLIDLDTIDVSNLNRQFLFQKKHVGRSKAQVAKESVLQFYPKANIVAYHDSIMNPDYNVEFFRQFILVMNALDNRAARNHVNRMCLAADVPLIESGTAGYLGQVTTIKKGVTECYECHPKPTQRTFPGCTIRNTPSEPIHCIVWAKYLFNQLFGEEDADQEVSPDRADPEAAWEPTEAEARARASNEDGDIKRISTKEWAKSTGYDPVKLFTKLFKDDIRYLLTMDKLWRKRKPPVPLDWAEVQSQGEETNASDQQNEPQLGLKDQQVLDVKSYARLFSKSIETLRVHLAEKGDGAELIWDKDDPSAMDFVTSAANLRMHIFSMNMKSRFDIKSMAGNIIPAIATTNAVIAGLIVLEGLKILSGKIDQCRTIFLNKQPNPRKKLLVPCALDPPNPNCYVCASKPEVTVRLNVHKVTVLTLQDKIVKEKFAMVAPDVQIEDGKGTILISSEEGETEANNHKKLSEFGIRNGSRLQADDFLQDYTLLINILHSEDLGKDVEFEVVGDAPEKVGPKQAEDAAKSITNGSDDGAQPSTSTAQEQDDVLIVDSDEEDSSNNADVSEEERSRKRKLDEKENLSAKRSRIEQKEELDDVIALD
T8 sequence (P21554 whole entry): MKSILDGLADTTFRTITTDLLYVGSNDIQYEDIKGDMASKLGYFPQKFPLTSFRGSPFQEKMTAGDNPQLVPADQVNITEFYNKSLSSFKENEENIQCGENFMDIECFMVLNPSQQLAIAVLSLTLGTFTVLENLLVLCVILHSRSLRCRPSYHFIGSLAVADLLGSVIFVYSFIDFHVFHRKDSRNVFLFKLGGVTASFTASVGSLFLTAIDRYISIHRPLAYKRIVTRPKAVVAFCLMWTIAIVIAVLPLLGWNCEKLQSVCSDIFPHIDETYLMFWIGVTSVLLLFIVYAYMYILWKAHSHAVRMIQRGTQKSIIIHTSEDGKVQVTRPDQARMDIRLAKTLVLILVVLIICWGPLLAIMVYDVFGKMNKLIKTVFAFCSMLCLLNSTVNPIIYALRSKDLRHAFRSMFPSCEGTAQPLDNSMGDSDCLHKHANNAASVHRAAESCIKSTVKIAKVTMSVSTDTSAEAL
T1 sequence (O43613 whole entry): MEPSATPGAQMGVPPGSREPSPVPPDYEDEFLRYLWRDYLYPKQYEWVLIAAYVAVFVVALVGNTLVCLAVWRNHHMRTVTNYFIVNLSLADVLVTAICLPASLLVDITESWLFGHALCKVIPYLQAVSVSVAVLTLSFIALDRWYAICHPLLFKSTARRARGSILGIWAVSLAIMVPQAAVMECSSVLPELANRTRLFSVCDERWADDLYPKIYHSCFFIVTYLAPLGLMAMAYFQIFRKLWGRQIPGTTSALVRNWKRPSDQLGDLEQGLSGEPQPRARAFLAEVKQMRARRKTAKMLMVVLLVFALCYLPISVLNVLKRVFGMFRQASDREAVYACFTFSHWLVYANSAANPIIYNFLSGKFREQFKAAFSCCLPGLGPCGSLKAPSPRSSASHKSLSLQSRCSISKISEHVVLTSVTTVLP
T9 sequence (P34972 whole entry): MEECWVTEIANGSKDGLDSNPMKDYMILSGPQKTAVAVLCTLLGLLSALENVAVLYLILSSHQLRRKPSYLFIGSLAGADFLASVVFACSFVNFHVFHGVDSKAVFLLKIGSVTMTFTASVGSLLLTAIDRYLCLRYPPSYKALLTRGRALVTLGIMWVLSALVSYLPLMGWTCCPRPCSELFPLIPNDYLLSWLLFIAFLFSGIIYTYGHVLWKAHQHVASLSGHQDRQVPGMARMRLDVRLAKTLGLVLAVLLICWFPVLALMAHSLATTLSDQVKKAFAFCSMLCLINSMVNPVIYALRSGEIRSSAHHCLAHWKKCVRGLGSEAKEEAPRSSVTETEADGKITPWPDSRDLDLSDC
G-protein coupled receptor 55, sequence (Q9Y2T6 whole entry): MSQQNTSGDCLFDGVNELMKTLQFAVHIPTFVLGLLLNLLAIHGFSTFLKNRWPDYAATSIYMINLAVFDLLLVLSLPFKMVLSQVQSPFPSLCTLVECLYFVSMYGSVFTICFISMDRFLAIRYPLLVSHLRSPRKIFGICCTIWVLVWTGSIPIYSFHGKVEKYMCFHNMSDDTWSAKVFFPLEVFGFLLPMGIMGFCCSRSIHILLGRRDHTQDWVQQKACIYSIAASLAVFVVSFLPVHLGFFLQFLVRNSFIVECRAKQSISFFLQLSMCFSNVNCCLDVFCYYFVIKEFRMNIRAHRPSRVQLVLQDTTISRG

Compound: Cc1cc(C)nc(N=C(N)Nc2ccc(SC(F)F)cc2)n1
- CC50 [1]: 16.1 µM (active)
- IC50 (CHO-K1): > 66.2 µM (inactive)
- IC50 [2]: 22.1 µM (inactive)
- IC50 [3]: 57 µM (inactive)
- IC50 [4]: 14.7 µM (inactive)

Compound: Cc1ccc(-c2csc(N3CCN(c4cc5c(cc4Cl)nc(-c4ccncc4)n5CCOCCO)CC3)n2)cc1
- AC50 (CAAX prenyl protease 2): 6.2 µM (active)
- AC50 [5]: 231 µM (active)

Compound: CC(=O)c1ccc(-c2ccc(/C=C(/Sc3n[nH]c(C)n3)C(=O)O)o2)cc1
- EC50 [6]: 21.6 µM (active)
- IC50 (SUMO-activating enzyme [7]): 4.2 µM (active)
- EC50 [8]: 14.9 µM (active)
- IC50 (SUMO-activating enzyme [9]): 74.2 µM (active)

Compound: Cc1ccc(C)c(-n2c(N)c(C(=O)N3CCCCC3)sc2=S)c1
- IC50 [10]: > 100 µM (inactive)

Compound: Cc1[nH]nc(-c2ccc(OCCN3CCOCC3)cc2O)c1-c1ccc(Cl)cc1
- EC50 [11]: > 32 µM (inactive)
- EC50 (Cannabinoid receptor 1 [12]): > 32 µM (inactive)
- IC50 [13]: > 32 µM (inactive)
- IC50 (Cannabinoid receptor 1 [14]): 2.11 µM (active)
- IC50 [15]: 19.2 µM (inactive)
- IC50 (Cannabinoid receptor 2 [16]): 29.1 µM (inactive)
- EC50 (Cannabinoid receptor 2 [17]): > 32 µM (inactive)

— ChEMBL document CHEMBL1201862, “PubChem BioAssay data set” (2004)
